Source: patent US4203986A, “M-Trifluoro-methylphenyl-piperazine” (Metabio-Joullie, priority 1977, dated 1980)
Like-named read-outs stand apart in the source and are kept apart here.

Assays:
[1] = system: coughing induced by aqueous citric acid aerosol; assay: Antitussive action in the guinea pig (citric acid aerosol); format: in vivo
Text: The technique used is that of SIECKMANN (W.) (in "Notions techniques de Pharmacologie generale" by Michel COLOT, page 75, Masson, Edit, 1972).
The guinea pigs .female. of mean weight 400 g, unanaesthesised, are subjected to the tussigenic effect of aerosols of a 7.5% aqueous citric acid solution. The animals are placed one by one in a cylindrical chamber having at its two extremities two canals, one serving as entrance for the aerosol and the other as its exit.
On the exit tube there is a lateral connection to a MERCURY gas pressure differential gauge joined to an RACIA counter. An adjustable screw clamp placed on the exit tube downstream of the lateral canal permits regulation of the sensitivity of the system such that the normal respiration of the animal only registers very weakly and that displacement of air in the chamber provoked by coughing attack is recorded clearly in the form of vertical traces.
Each guinea pig is first submitted to a control test for 5 minutes. One hour later it receives the test compound. It is replaced in the chamber for 5 minutes, 1 hour after oral administration of the compound.
The number of coughing attacks before and after administration is counted and the percentage inhibition is calculated.

[2] = Test on the cataleptic action in rats; format: in vivo; details: p.o., every 30 minutes for 6 hours
Description: (7) Test on the cataleptic action in rats (groups of 5 animals)
After administration p.o. of the test compounds, the degree of catalepsy is noted every 30 minutes for 6 hours by the test of crossing of the homolateral feet according to BOISSIER (J.R.) and SIMON (P.) (Therapy, 1963, 18, 1257-1277) and using the following notation:
0=animal which is not cataleptic
132 animal conserving position on one side only
2=animal conserving position on both sides

Acute toxicity in Mice = format: in vivo, mice (SWISS, EOPS, NMRI/Han, female); details: for LD50 at 360 h / MTD at 360 h: mouse, in vivo; for LD50 at 360 h: method of KARBER and BEHRENS; for MTD at 360 h: read-out: LD 0 (maximum dose tolerated)
Description: The compounds are administered in increasing doses (in arithmetic progression) to groups of five .female. SWISS, EOPS, NMRI/Han mice of the EVIC CEBA strain and having a mean weight of 22 g.
For intravenous administration the compounds are dissolved in distilled water, for oral administration they are suspended in 10% gum arabic solution (volume administered: 0.5 ml/22 g body weight).
The LD 50's are calculated according to the method of KARBER and BEHRENS (B.) (Arch. Exp. Path. Pharmakol. 1935, 177, 379-388).
For each administration method, there is indicated:
LD 0 or maximum dose tolerated.
LD 100 or minimum lethal dose.
The number of animals surviving in the different groups is definitively verified 15 days after administrating the compounds.

[3] = system: toxicity of amphetamine compounds; assay: Action on the toxicity of Amphetamine compounds in the mice; format: in vivo; details: per os
Description: (6) Action on the toxicity of Amphetamine compounds in the mice. (groups of 10 animals)
30 minutes after administration of the test compounds, amphetamine bitartrate is injected interperitioeally at a dose of 10 mg/kg (dose giving substantially 100% mortality) to mice in groups of 10 in boxes 12×18×13 cm. The number of animals surviving 24 hours after the amphetamine administration is noted.

[4] = system: coughing by stimulation of the superior larynx nerve; assay: Antitussive action in the cat (stimulation of the superior larynx nerve); format: in vivo
Description: The cats all thriving, male or female of weight between 1.5 and 2.5 kg (test on 10 cats) are anaesthesised by nembutal at a dose of 30 mg/kg interperitoneally.
A cannula having three branches is placed in the trachea. Two of the branches are connected to a device for registering intratracheal pressure (MERCURY gas pressure gauge connected to an RACIA polygraph) The third branch allows elimination of part of the respiratory volume.
A cannula is placed in the femoral vein for administration of the test substances.
The stimulation parameters are as follows: frequency: 5 cycles per sec, amplitude: 5 millisec, voltage: 4 to 6 volts, duration: 15 to 45 sec. (according to the sensitivity of the animal).
There are carried a minimum of 3 stimulations spaced by 5 minutes and provoking coughing attacks of the same severity. The compound is then administered intravenously. The stimulation is then carried out every 5 minutes. If the compound reduces or suppresses the coughing the stimulation is continued until the reappearance of coughing to approximately the same degree as the initial coughing.
The results are expressed as a percentage reduction in the number of coughs.

SMILES | cataleptic effect [2] | LD 100 (minimum lethal dose) (Acute toxicity in Mice; intravenous administration) [mg/kg] | LD50 at 360 h (Acute toxicity in Mice; iv, intravenous administration) [mg/kg] | MTD at 360 h (Acute toxicity in Mice; iv, intravenous administration) [mg/kg] | LD50 at 360 h (Acute toxicity in Mice; po, oral administration) [mg/kg] | MTD at 360 h (Acute toxicity in Mice; po, oral administration) [mg/kg] | LD 100 (minimum lethal dose) (Acute toxicity in Mice; oral administration) [mg/kg] | other results
O=C1CCCC1CN1CCN(c2cccc(C(F)(F)F)c2)CC1 (centres unmarked) [LJ 1160] | absence of cataleptic effect | 87.5 | 74 | 62.5 | 975 | 500 | 1500 | inhibition in vivo at 100 mg/kg ([1]; Cavia porcellus, po, 1 h, 100 mg/kg p.o., read-out: Percentages of inhibition of coughing): 50%; toxicity of amphetamine compounds (in words) [3]: reduce the toxicity of amphetamine compounds
OC1CCCCC1CN1CCN(c2cccc(C(F)(F)F)c2)CC1 (centres unmarked) [LJ 1161, 2-[4-(m-Trifluoromethylphenyl)-piperazino]-methyl-cyclohexanol] | absence of cataleptic effect | 87.5 | 66 | 50 | 1500 | 750 | 2000 | inhibition in vivo at 150 mg/kg ([1]; Cavia porcellus, po, 1 h, 150 mg/kg p.o., read-out: Percentages of inhibition of coughing): 75%
O=C(CN1CCN(c2cccc(C(F)(F)F)c2)CC1)CN1CCN(c2cccc(C(F)(F)F)c2)CC1 [LJ 1163] |  | 22.5 | 18 | 12.5 | 180 | 125 | 250 | inhibition in vivo at 9 mg/kg ([1]; Cavia porcellus, po, 1 h, 9 mg/kg p.o., read-out: Percentages of inhibition of coughing): 64%; inhibition in vivo at 18 mg/kg ([1]; Cavia porcellus, po, 1 h, 18 mg/kg p.o., read-out: Percentages of inhibition of coughing): 78%; antitussive activity (in words) ([1]; oral): also active if not more active than codeine; % maximum reduction in the number of coughs ([4]; 1.8 mg/kg i.v.): 50%; Delay in the disappearance of protective effect ([4]; 1.8 mg/kg i.v.): Fleeting; % maximum reduction in the number of coughs ([4]; 3.6 mg/kg i.v.): 62%
O=C1CCCCCC1CN1CCN(c2cccc(C(F)(F)F)c2)CC1 (centres unmarked) [LJ 1176, 2-[4-(m-Trifluoromethylphenyl)-piperazino]-methyl-cycloheptanone] | absence of cataleptic effect |  |  |  | 1950 | 1500 | 2500 | inhibition in vivo at 200 mg/kg ([1]; Cavia porcellus, po, 1 h, 200 mg/kg p.o., read-out: Percentages of inhibition of coughing): 78%
OCCN1CCN(c2ccc(F)c(C(F)(F)F)c2)CC1 [LJ 1195, 2-[4-(3-Trifluoromethyl-4-fluorophenyl)-piperazino]-ethanol] |  |  |  |  | 844 | 300 | 1250 | 
O=C1CCCCC1CN1CCN(c2ccc(F)c(C(F)(F)F)c2)CC1 (centres unmarked) [LJ 1196, 2-[4-(3-Trifluoromethyl-4-fluorophenyl)-piperazino]-methyl-cyclohexanone] |  |  |  |  | 937 | 625 | 1250 | 
OC(CN1CCN(c2ccc(F)c(C(F)(F)F)c2)CC1)CN1CCN(c2ccc(F)c(C(F)(F)F)c2)CC1 [LJ 1198, 1,3-bis[4-(3-Trifluoromethyl-4-fluorophenyl)-piperazino)-propan-2-ol] |  |  |  |  | 225 | 50 | 400 | inhibition in vivo at 22 mg/kg ([1]; Cavia porcellus, po, 1 h, 22 mg/kg p.o., read-out: Percentages of inhibition of coughing): 50%
